The text below walks through data of PubChem BioAssay AID248 (DTP/NCI, 2004).

The subject of the experiment is L1210 leukemia ip in BDF1 mice, survival T/C. The experiment can be described thus: NCI In Vivo Anticancer Drug Screen. Data for tumor model L1210 Leukemia (intraperitoneal) in B6D2F1 (BDF1) mice. The conditions noted are these: endpoint: mean survival time, higher = longer survival. A digest of the protocol:
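Value reflects the ratio of survival in compound-treated mice to survival in vehicle-treated controls, with both groups carrying the same transplanted tumor.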

The mark [1] stands for this setting: dose: 100.0 mg/kg/injection, schedule: Q04DX003 (ip), vehicle: Klucel (hydroxypropylcellulose) (HPC).
[2] abbreviates: dose: 200.0 mg/kg/injection, schedule: Q04DX003 (ip), vehicle: Klucel (hydroxypropylcellulose) (HPC).
The mark [3] stands for this setting: dose: 400.0 mg/kg/injection, schedule: Q04DX003 (ip), vehicle: Klucel (hydroxypropylcellulose) (HPC).
The mark [4] stands for this setting: dose: 25.0 mg/kg/injection, schedule: Q01DX009 (ip), vehicle: Klucel (hydroxypropylcellulose) (HPC).
Where [5] appears, read: dose: 25.0 mg/kg/injection, schedule: Q04DX003 (ip), vehicle: Klucel (hydroxypropylcellulose) (HPC).
The mark [6] stands for this setting: dose: 50.0 mg/kg/injection, schedule: Q01DX009 (ip), vehicle: Klucel (hydroxypropylcellulose) (HPC).

Structures are written as SMILES. Values joined by “and” are separate entries in the source; they are usually repeats but may differ in a detail not shown here. Equal values may be shown once. Toxic doses and inconclusive results are not listed.

In the case of `CC(C)(CNCc1ccco1)[N+](=O)[O-]`, the T/C reads like this: (dose: 50.0 mg/kg/injection, schedule: Q01DX009 (ip), vehicle: other) 103 % of control; (dose: 100.0 mg/kg/injection, schedule: Q01DX009 (ip), vehicle: other) 95 % of control; (dose: 200.0 mg/kg/injection, schedule: Q01DX009 (ip), vehicle: other) 106 % of control.
As for `N#CN(Cc1ccccc1)Cc1ccccc1`, the T/C is, setting by setting: (dose: 100.0 mg/kg/injection, schedule: Q01DX009 (ip), vehicle: Klucel (hydroxypropylcellulose) (HPC)) 100 % of control; under setting [1], 101 % of control; (dose: 200.0 mg/kg/injection, schedule: Q01DX009 (ip), vehicle: Klucel (hydroxypropylcellulose) (HPC)) 105 % of control; under setting [2], 102 % of control; (dose: 400.0 mg/kg/injection, schedule: Q01DX009 (ip), vehicle: Klucel (hydroxypropylcellulose) (HPC)) 109 % of control; under setting [3], 95 % of control.
Regarding `CCN1CSC(=S)N(CC)C1`, the T/C by setting is: (dose: 12.5 mg/kg/injection, schedule: Q04DX003 (ip), vehicle: Klucel (hydroxypropylcellulose) (HPC)) 96 % of control; under setting [4], 103 % of control; under setting [5], 112 % of control; under setting [6], 109 % of control; (dose: 50.0 mg/kg/injection, schedule: Q04DX003 (ip), vehicle: Klucel (hydroxypropylcellulose) (HPC)) 103 % of control.
`CCNc1ccc(F)cc1[N+](=O)[O-]`: the T/C was 110 % of control (dose: 100.0 mg/kg/injection, schedule: Q01DX009 (ip), vehicle: saline sonified); 103 % of control under setting [1]; 102 % of control (dose: 200.0 mg/kg/injection, schedule: Q01DX009 (ip), vehicle: saline sonified); 104 % of control under setting [2]; 102 % of control (dose: 400.0 mg/kg/injection, schedule: Q01DX009 (ip), vehicle: saline sonified); 97 % of control under setting [3].
Regarding `Cc1cc2c(c3oc(C4(C)OC4C4OC4C)cc(=O)c13)C(=O)c1c(O)c(C3CC(C)(N(C)C)C(O)C(C)O3)cc(C3CC(N(C)C)C(O)C(C)O3)c1C2=O` (stereo not given), the T/C (dose: 0.06 mg/kg/injection, schedule: Q01DX009 (ip), vehicle: other) is 118 % of control; the T/C (dose: 0.06 mg/kg/injection, schedule: Q01DX009 (ip), vehicle: saline) was 114 % of control; the T/C (dose: 0.12 mg/kg/injection, schedule: Q01DX009 (ip), vehicle: other) was 95 % of control; the T/C (dose: 0.12 mg/kg/injection, schedule: Q01DX009 (ip), vehicle: saline) is 86 % of control; the T/C (dose: 0.24 mg/kg/injection, schedule: Q01DX009 (ip), vehicle: saline) was 88 % of control; the T/C (dose: 1.5 micrograms/kg/injection, schedule: Q01DX015 (ip), vehicle: saline) was 115 % of control. For the same molecule, the T/C by setting is: (dose: 3.0 micrograms/kg/injection, schedule: Q01DX015 (ip), vehicle: saline) 114 % of control; (dose: 4.0 micrograms/kg/injection, schedule: Q01DX001 (ip), vehicle: carboxymethylcellulose (CMC)) 110 % of control; (dose: 6.0 micrograms/kg/injection, schedule: Q01DX015 (ip), vehicle: saline) 117 % of control; (dose: 9.0 micrograms/kg/injection, schedule: Q01DX001 (ip), vehicle: carboxymethylcellulose (CMC)) 109 % of control; (dose: 12.0 micrograms/kg/injection, schedule: Q01DX015 (ip), vehicle: saline) 117 % of control; (dose: 18.0 micrograms/kg/injection, schedule: Q01DX001 (ip), vehicle: carboxymethylcellulose (CMC)) 112 % of control. Also, the T/C by setting is: (dose: 25.0 micrograms/kg/injection, schedule: Q01DX Z (ip), vehicle: carboxymethylcellulose (CMC)) 107 % of control; (dose: 37.0 micrograms/kg/injection, schedule: Q01DX001 (ip), vehicle: carboxymethylcellulose (CMC)) 112 % of control; (dose: 50.0 micrograms/kg/injection, schedule: Q01DX Z (ip), vehicle: carboxymethylcellulose (CMC)) 98 % of control; (dose: 75.0 micrograms/kg/injection, schedule: Q01DX001 (ip), vehicle: carboxymethylcellulose (CMC)) 121 % of control; (dose: 96.0 micrograms/kg/injection, schedule: Q01DX015 (ip), vehicle: saline) 108 % of control.
On to `Cc1csc(/N=C/c2ccc([N+](=O)[O-])o2)n1`, for which the T/C is, setting by setting: (dose: 50.0 mg/kg/injection, schedule: Q01DX009 (ip), vehicle: saline with Tween-80) 100 % of control; (dose: 100.0 mg/kg/injection, schedule: Q01DX009 (ip), vehicle: saline with Tween-80) 105 % of control; (dose: 100.0 mg/kg/injection, schedule: Q04DX003 (ip), vehicle: saline with Tween-80) 103 % of control; (dose: 200.0 mg/kg/injection, schedule: Q01DX009 (ip), vehicle: saline with Tween-80) 101 % of control; (dose: 200.0 mg/kg/injection, schedule: Q04DX003 (ip), vehicle: saline with Tween-80) 97 % of control.
In the case of `Cc1nc(N(C)CC(=O)O)ncc1C(=O)O`, the T/C (dose: 100.0 mg/kg/injection, schedule: Q04DX002 (ip), vehicle: Klucel (hydroxypropylcellulose) (HPC)) was 91 % of control; the T/C (dose: 200.0 mg/kg/injection, schedule: Q04DX002 (ip), vehicle: Klucel (hydroxypropylcellulose) (HPC)) is 91 % of control; the T/C (dose: 400.0 mg/kg/injection, schedule: Q04DX002 (ip), vehicle: Klucel (hydroxypropylcellulose) (HPC)) is 94 % of control.
With `C[C@]12C[C@H](O)[C@H]3[C@@H](CCC4=CC(=O)CC[C@@]43C)[C@@H]1CC[C@@H]2C(=O)CO`, the T/C by setting is: (dose: 25.0 mg/kg/injection, schedule: Q01DX009 (sc), vehicle: steriod suspending solution) 101 % of control; (dose: 25.0 mg/kg/injection, schedule: Q01DX010 (sc), vehicle: steriod suspending solution) 102 % of control; (dose: 50.0 mg/kg/injection, schedule: Q01DX009 (sc), vehicle: steriod suspending solution) 95 % of control and 103 % of control; (dose: 50.0 mg/kg/injection, schedule: Q01DX010 (sc), vehicle: steriod suspending solution) 104 % of control; (dose: 100.0 mg/kg/injection, schedule: Q01DX009 (sc), vehicle: steriod suspending solution) 94 % of control and 107 % of control; (dose: 100.0 mg/kg/injection, schedule: Q01DX010 (sc), vehicle: steriod suspending solution) 102 % of control. In addition, the T/C reads like this: (dose: 200.0 mg/kg/injection, schedule: Q01DX009 (sc), vehicle: steriod suspending solution) 105 % of control and 113 % of control; (dose: 200.0 mg/kg/injection, schedule: Q01DX010 (sc), vehicle: steriod suspending solution) 102 % of control.
Regarding `CC(=O)CC(=O)OCC1COCO1` (stereo not given), the T/C by setting is: (dose: 222.0 mg/kg/injection, schedule: Q01DX Z (ip), vehicle: methylcellulose (MC)) 104 % of control; (dose: 333.0 mg/kg/injection, schedule: Q01DX Z (ip), vehicle: methylcellulose (MC)) 95 % of control; (dose: 500.0 mg/kg/injection, schedule: Q01DX Z (ip), vehicle: methylcellulose (MC)) 107 % of control.
As for `CN(C)N=Nc1ccc2[nH]ncc2c1`, the T/C runs as follows: (dose: 14.5 mg/kg/injection, schedule: Q01DX009 (ip), vehicle: Klucel (hydroxypropylcellulose) (HPC)) 123 % of control; (dose: 16.5 mg/kg/injection, schedule: Q04DX003 (ip), vehicle: Klucel (hydroxypropylcellulose) (HPC)) 100 % of control; under setting [4], 114 % of control; under setting [5], 107 % of control; (dose: 33.0 mg/kg/injection, schedule: Q01DX009 (ip), vehicle: Klucel (hydroxypropylcellulose) (HPC)) 152 % of control; (dose: 37.5 mg/kg/injection, schedule: Q04DX003 (ip), vehicle: Klucel (hydroxypropylcellulose) (HPC)) 117 % of control. In addition, the T/C runs as follows: under setting [6], 119 % of control; (dose: 100.0 mg/kg/injection, schedule: Q01DX001 (ip), vehicle: Klucel (hydroxypropylcellulose) (HPC)) 111 % of control.
With `CC(=O)Nc1ccc2c(c1)Cc1cc(N=Cc3ccc4c(c3)OCO4)ccc1-2`, the T/C (dose: 100.0 mg/kg/injection, schedule: Q01DX001 (ip), vehicle: carboxymethylcellulose (CMC)) is 91 % of control; the T/C (dose: 200.0 mg/kg/injection, schedule: Q01DX001 (ip), vehicle: carboxymethylcellulose (CMC)) was 104 % of control; the T/C (dose: 400.0 mg/kg/injection, schedule: Q01DX001 (ip), vehicle: carboxymethylcellulose (CMC)) is 93 % of control.
`CC(=O)OC1CC(n2cc(C)c(=O)[nH]c2=O)OC1COP(=O)(N1CC1(C)C)N1CC1(C)C` (stereo not given): the T/C is, setting by setting: (dose: 50.0 mg/kg/injection, schedule: Q04DX002 (ip), vehicle: saline) 110 % of control; (dose: 100.0 mg/kg/injection, schedule: Q04DX002 (ip), vehicle: saline) 112 % of control; (dose: 200.0 mg/kg/injection, schedule: Q04DX002 (ip), vehicle: saline) 123 % of control.
